Assay results taken from US5648455A, “Antibiotic WAP-8294A, method for preparing the same and antibacterial composition” (Wakamoto Pharmaceutical Co., Ltd., priority 1994, dated 1997).
Values after ≈ are worked out from the molar mass of the structure shown. Numbered stars: 1 amine (or outer) side, 2 acyl side, 3 side chain; on linkers, the order of the positions; unused ones are H or OH. Bridge positions count the residues as written; N and C are the ends. Square brackets hold non-standard residues; d marks the D form. Peptide text beside a SMILES is read from it. ξ: configuration not given here. ξAsn(3ξ-OH) = NC(=O)C(O)C(N)C(=O)O; X2 = CC(C)CCCC(CC(=O)[*:1])O[*:2]; NMeF = CN[CH](Cc1ccccc1)C(=O)O; X1 = CCCCCC(CC(=O)[*:1])O[*:2]; NMeV = CN[CH](C(=O)O)C(C)C; Orn = NCCC[CH](N)C(=O)O

How the values were obtained:
[1] = system: Staphylococcus aureus JCM8702 (a clinically isolated strain of MRSA); test: Protective effect against experimental systemic MRSA infection in mice; assay type: in vivo, ICR-MCH mice; settings: dose 10 mg/kg, once subcutaneously one hour after infection
Procedure: The experiments were carried out by intra-peritoneally administering 0.5 mg/0.5 ml/mouse of cyclophosphamide to ICR-MCH mice [4-week-old male mice (available from Nippon CLEA Co., Ltd.), 8 animals per group] 3 days before the infection and then infecting the animals through intra-peritoneal administration of 0.5 ml each of a liquid containing 2×10^4 /ml of Staphylococcus aureus JCM8702 strain supplemented with 5% mucin. One hour after the infection, 10 mg/kg of Vancomycin HCl (available from Shionogi & Co., Ltd.) and 0.2 ml/mouse of the antibiotic WAP-8294AX (containing 10 mg/kg, 2.5 mg/kg, 1.0 mg/kg or 0.5 mg/kg of the antibiotic) was once subcutaneously injected to mice. To control groups, there was subcutaneously administered 0.2 ml each of physiological saline.

[2] = system: Staphylococcus aureus No. 1 (a clinically isolated strain of MRSA); test: as above; assay type: in vivo, ICR-MCH mice; settings: dose 10 mg/kg, once subcutaneously one hour after infection
Procedure: The experiments were carried out by intra-peritoneally administering 0.5 mg/0.5 ml/mouse of cyclophosphamide to ICR-MCH mice [4-week-old male mice (available from Nippon CLEA Co., Ltd.), 8 animals per group] 3 days before the infection and then infecting the animals through intra-peritoneal administration of 0.5 ml each of a liquid containing 2×10^6 /ml of Staphylococcus aureus No. 1 strain supplemented with 5% mucin. One hour after the infection, 10 mg/kg of Vancomycin HCl (available from Shionogi & Co., Ltd.) and 0.2 ml/mouse of the antibiotic WAP-8294A (containing 10 mg/kg, 5 mg/kg, 2.5 mg/kg, 1.0 mg/kg, 0.5 mg/kg, 0.25 mg/kg, 0.1 mg/kg or 0.05 mg/kg of the antibiotic) was once subcutaneously injected to mice. To control groups, there was subcutaneously administered 0.2 ml each of physiological saline.

[3] = system: Gram-positive bacteria including MRSA (methicillin-resistant Staphylococcus aureus); test: Antibacterial activity, summary of Table 4; assay type: cell-based; settings: for increase of antibacterial activity when 10% bovine serum is added to the culture medium: relative to culture medium without serum; for antibacterial activity against Gram-positive bacteria including MRSA: sensitive bouillon medium, Table 4
Procedure: (§1) The determination of the minimum inhibitory concentration (MIC) was carried out by broth dilution method which made use of a sensitive bouillon medium (available from Eiken Chemical Co., Ltd.).

Solubility = assay type: physicochemical; settings: solvents
[4] = system: Staphylococcus aureus No. 1 (MRSA clinically isolated strain); test: MIC, broth dilution, sensitive bouillon medium; assay type: cell-based
Procedure: as §1

[5] = system: Staphylococcus epidermidis (ATCC 12228); test: MIC, broth dilution, sensitive bouillon medium; assay type: cell-based
Procedure: as §1

[6] = system: Candida albicans (TIMM 0239); test: MIC, broth dilution, sensitive bouillon medium; assay type: cell-based
Procedure: as §1

[7] = system: Staphylococcus aureus (ATCC 25923); test: MIC, broth dilution, sensitive bouillon medium; assay type: cell-based
Procedure: as §1

[8] = system: Staphylococcus aureus 371 R (MRSA clinically isolated strain); test: MIC, broth dilution, sensitive bouillon medium; assay type: cell-based
Procedure: as §1

[9] = system: Pseudomonas aeruginosa (ATCC 9027); test: MIC, broth dilution, sensitive bouillon medium; assay type: cell-based
Procedure: as §1

[10] = system: Streptococcus pyogenes (ATCC 19615); test: MIC, broth dilution, sensitive bouillon medium; assay type: cell-based
Procedure: as §1

[11] = system: Aspergillus fumigatus (IAM 2004); test: MIC, broth dilution, sensitive bouillon medium; assay type: cell-based
Procedure: as §1

[12] = system: Staphylococcus aureus No. 11 (MRSA clinically isolated strain); test: MIC, broth dilution, sensitive bouillon medium; assay type: cell-based
Procedure: as §1

[13] = system: Bacillus subtilis (ATCC 6633); test: MIC, broth dilution, sensitive bouillon medium; assay type: cell-based
Procedure: as §1

[14] = system: Escherichia coli (ATCC 25922); test: MIC, broth dilution, sensitive bouillon medium; assay type: cell-based
Procedure: as §1

[15] = Addition of Serum: 10% (bovine serum)

MIC [4, 15] | MIC ([4]; Addition of Serum: None) | MIC [5, 15] | MIC ([5]; Addition of Serum: None) | MIC [6, 15] | MIC ([6]; Addition of Serum: None) | MIC [7, 15] | MIC ([7]; Addition of Serum: None) | MIC [8, 15] | MIC ([8]; Addition of Serum: None) | MIC [9, 15] | MIC ([9]; Addition of Serum: None) | MIC [10, 15] | MIC ([10]; Addition of Serum: None) | MIC [11, 15] | MIC ([11]; Addition of Serum: None) | MIC [12, 15] | SMILES | increase of antibacterial activity when 10% bovine serum is added to the culture medium [3] | antibacterial activity against Gram-positive bacteria including MRSA [3] | Solubility (Solubility) | other results
 |  |  |  |  |  |  |  |  |  |  |  |  |  |  |  |  | CN[C@H](CC(C)C)C(=O)N[C@H]1C(=O)N[C@@H](CC(N)=O)C(=O)N[C@H]2C(=O)N[C@H]3C(=O)N[C@H](C(=O)N[C@H](C(=O)O)c4cc(O)cc(O)c4-c4cc3ccc4O)[C@H](O)c3ccc(c(Cl)c3)Oc3cc2cc(c3O[C@@H]2O[C@H](CO)[C@@H](O)[C@H](O)[C@H]2O[C@H]2C[C@](C)(N)[C@H](O)[C@H](C)O2)Oc2ccc(cc2Cl)[C@H]1O [Vancomycin] |  |  |  | Survival/No. of Test Animals [1]: 5/8; Survival/No. of Test Animals [2]: 5/8
< 0.10 µg/mL | 0.39 µg/mL (≈ 0.252 µM) | < 0.10 µg/mL | 0.39 µg/mL (≈ 0.252 µM) | > 100 µg/mL | > 100 µg/mL | < 0.10 µg/mL | 0.39 µg/mL (≈ 0.252 µM) | < 0.10 µg/mL | 0.39 µg/mL (≈ 0.252 µM) | > 100 µg/mL | > 100 µg/mL | 25 µg/mL (≈ 16.1 µM) | 6.25 µg/mL (≈ 4.04 µM) | > 100 µg/mL | > 100 µg/mL | < 0.10 µg/mL | CCCCCC1CC(=O)NC(CO)C(=O)NC(C(O)C(N)=O)C(=O)NC(CO)C(=O)NCC(=O)N(C)C(Cc2ccccc2)C(=O)NC(CC(C)C)C(=O)NC(CCCN)C(=O)NC(CCC(=O)O)C(=O)NC(CC(N)=O)C(=O)NC(Cc2c[nH]c3ccccc23)C(=O)NC(CCCN)C(=O)N(C)C(C(C)C)C(=O)O1 (stereo not shown) [WAP-8294A1] (S[ξAsn(3ξ-OH)]SG[NMeF]L[Orn]ENW[Orn][NMeV]; linker N-C via X1; configuration not given here) | not less than 8 times | strong antibacterial activity | soluble in water, methanol, n-butanol, dimethylformamide and dimethylsulfoxide and insoluble in acetone, ethyl acetate and chloroform | MIC ([12]; Addition of Serum: None): 0.39 µg/mL (≈ 0.252 µM); MIC [13, 15]: < 0.10 µg/mL; MIC ([13]; Addition of Serum: None): 0.39 µg/mL (≈ 0.252 µM); MIC [14, 15]: > 100 µg/mL; MIC ([14]; Addition of Serum: None): > 100 µg/mL
< 0.10 µg/mL | 0.78 µg/mL (≈ 0.499 µM) | < 0.10 µg/mL | 0.78 µg/mL (≈ 0.499 µM) | > 100 µg/mL | > 100 µg/mL | < 0.10 µg/mL | 0.78 µg/mL (≈ 0.499 µM) | < 0.10 µg/mL | 0.78 µg/mL (≈ 0.499 µM) | > 100 µg/mL | > 100 µg/mL | 25 µg/mL (≈ 16 µM) | 6.25 µg/mL (≈ 4 µM) | > 100 µg/mL | > 100 µg/mL | < 0.10 µg/mL | CC(C)CCCC1CC(=O)NC(CO)C(=O)NC(C(O)C(N)=O)C(=O)NC(CO)C(=O)NCC(=O)N(C)C(Cc2ccccc2)C(=O)NC(CC(C)C)C(=O)NC(CCCN)C(=O)NC(CCC(=O)O)C(=O)NC(CC(N)=O)C(=O)NC(Cc2c[nH]c3ccccc23)C(=O)NC(CCCN)C(=O)N(C)C(C(C)C)C(=O)O1 (stereo not shown) [WAP-8294A2] (S[ξAsn(3ξ-OH)]SG[NMeF]L[Orn]ENW[Orn][NMeV]; linker N-C via X2; configuration not given here) | not less than 8 times | strong antibacterial activity | soluble in water, methanol, n-butanol, dimethylformamide and dimethylsulfoxide and insoluble in acetone, ethyl acetate and chloroform | MIC ([12]; Addition of Serum: None): 0.78 µg/mL (≈ 0.499 µM); MIC [13, 15]: < 0.10 µg/mL; MIC ([13]; Addition of Serum: None): 0.78 µg/mL (≈ 0.499 µM); MIC [14, 15]: > 100 µg/mL; MIC ([14]; Addition of Serum: None): > 100 µg/mL
